This passage reports IC50, inhibition and Kd results from ChEMBL document CHEMBL2346565, “Syntheses and biological evaluation of 1-heteroaryl-2-aryl-1H-benzimidazole derivatives as c-Jun N-terminal kinase inhibitors with neuroprotective effects” (Bioorg Med Chem, 2013).

For assay [1], the target named is T1, Mitogen-activated protein kinase 10 (Homo sapiens, UniProt P53779). As to the kind of experiment: Inhibition of JNK3 in human PBMCs assessed as decrease in LPS-induced TNFalpha mRNA level after 4 hrs by real-time reverse transcription-PCR analysis.
T1 sequence (P53779 whole entry, the tested form may be a part): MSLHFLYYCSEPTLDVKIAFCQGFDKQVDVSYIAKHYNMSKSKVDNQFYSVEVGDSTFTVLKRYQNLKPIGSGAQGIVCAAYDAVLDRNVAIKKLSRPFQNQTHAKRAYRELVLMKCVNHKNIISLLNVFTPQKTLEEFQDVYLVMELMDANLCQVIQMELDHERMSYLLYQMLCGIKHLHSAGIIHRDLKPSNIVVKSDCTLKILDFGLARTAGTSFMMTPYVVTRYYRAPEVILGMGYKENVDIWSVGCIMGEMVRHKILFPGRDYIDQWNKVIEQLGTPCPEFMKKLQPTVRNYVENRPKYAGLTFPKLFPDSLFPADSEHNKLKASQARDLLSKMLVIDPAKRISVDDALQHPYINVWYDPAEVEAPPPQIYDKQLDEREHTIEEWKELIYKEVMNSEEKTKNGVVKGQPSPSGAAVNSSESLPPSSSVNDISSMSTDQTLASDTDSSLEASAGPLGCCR
Assay [2] concerns the target T1, Mitogen-activated protein kinase 10. As to the kind of experiment: Binding affinity to N-terminal His6X-tagged human recombinant JNK3 catalytic domain expressed in Escherichia coli BL21 (DE3) by surface plasmon resonance analysis.
Assay [3] shares this target. Nature of the assay: Competitive inhibition of JNK3 (unknown origin) in presence of ATP.
Assay [4] deals with Mitogen-activated protein kinase 9 (Homo sapiens, UniProt P45984). As to the kind of experiment: Competitive inhibition of JNK2 (unknown origin) in presence of ATP.
Chain of Mitogen-activated protein kinase 9 (P45984 whole entry): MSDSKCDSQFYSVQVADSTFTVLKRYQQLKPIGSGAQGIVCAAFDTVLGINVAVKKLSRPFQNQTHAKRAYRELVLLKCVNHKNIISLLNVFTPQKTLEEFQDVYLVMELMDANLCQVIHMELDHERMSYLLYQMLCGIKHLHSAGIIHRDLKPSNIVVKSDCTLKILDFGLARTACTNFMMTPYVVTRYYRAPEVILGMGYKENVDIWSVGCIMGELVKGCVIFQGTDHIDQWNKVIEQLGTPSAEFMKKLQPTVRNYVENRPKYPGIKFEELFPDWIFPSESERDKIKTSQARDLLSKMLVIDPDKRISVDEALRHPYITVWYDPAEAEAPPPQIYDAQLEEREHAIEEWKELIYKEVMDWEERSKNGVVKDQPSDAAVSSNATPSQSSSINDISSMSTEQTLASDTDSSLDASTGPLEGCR

In general, IC50 refers to the midpoint of a concentration-inhibition curve. A word on the Kd: it is a measure of binding affinity in units of concentration.

As to `Oc1c2ccccc2c2c3c(cccc13)N=N2` [SP-600125], in assay [1], the IC50 came to 10 µM and the inhibition result is “Dose-dependent effect”.
Consider `COc1ccc2c(c1)nc(-c1ccc(C)c(Cl)c1)n2-c1ccnc(NC2CCCCC2)c1`, for which, in assay [2], the Kd was 18.1 µM.
As for `Oc1cccc(-c2nc3ccccc3n2-c2ccnc(N[C@@H]3CCCNC3)c2)c1`, the results for the half-maximal inhibitory concentration (IC50) in assay [3] and in assay [4] were 1.86 µM and 2.18 µM, respectively.
